For experiment [1], the system named is MDA-MB-231-luc tumors. Briefly: TCM-induced metastasis model. It counts as in vivo, mice. On the procedure:
TCM-Induced Metastasis Model.
Before tumor inoculation, athymic nude mice (female 5-6 weeks, 18-20 g) were treated with 50 μL TCM or SFM subcutaneously through the scruff for 2 weeks. After 2 weeks of TCM treatment, MDA-MB-231-luc-D3H2LN tumor xenografts were established in the same animals; the cells (2×10^6) were mixed with 50 μL complete media (RPMI-1640 supplemented with 10% FBS), and 50 μL Matrigel (High Concentrated, BD Biosciences) and injected into the upper inguinal mammary fat pad of the animals under anesthesia (50 mg/kg ketamine+5 mg/kg acepromazine in PBS, 50 μL/animal, intraperitoneally dosed). The primary tumor size was measured by using a caliper, and the volume w calculated, using the formula: V=0.52×a×b^2, where ‘a’ is the long axis, and ‘b’ is the short axis of the tumor. Animals were also imaged every week to track anterior tumor metastases, using the IVIS Xenogen 200 optical imager (Xenogen, Alameda, Calif.) after intraperitoneal injection of d-luciferin (Caliper 150 mg/kg). 100 μL D-luciferin (twice diluted) was intraperitoneally dosed on both sides of the abdomen (total 200 μL/animals) to prevent i.p. injection failure. […] Luciferase-mediated photon flux was quantified by using Living Image® 3D Analysis (Xenogen), and the average photon flux was obtained from eight lungs, eight brains, and 14-16 LNs as described before. […]

In experiment [2] the test system is insulin growth factor 1 (IGF1) signaling. Briefly: IGF1 signaling in vitro in MEC. The experiment is classed as cell-based. As to conditions: FIG. 6.
Experiment [3] relates to lymphatic endothelial cell (LEC). Briefly: LEC adhesion assay. It counts as cell-based. Conditions: FIG. 4. On the procedure:
Similar to the migration assays, the inhibition activity of the peptide in cellular adhesion was assessed using the RT-CIM technology. In this case, 25,000 cells/well were plated in 16 wells E-plates (Roche, Basel Switzerland) in the presence or absence of the peptide. The adhesion was monitored over time (3 hours) by measuring changes in the electrical impedance, which is a direct measure of the cells adhering on the electrodes. Assays were performed in at least two independent replicates and each replicate was performed using two experimental duplicates.

The subject of experiment [4] is microvascular endothelial cell (MEC). Briefly: MEC tube formation assay. It counts as cell-based. As to conditions: 25 μM peptide; FIG. 3 C-D.
The test system of experiment [5] is lymphatic endothelial cell (LEC). Briefly: LEC tube formation assay. The experiment is classed as cell-based. As to conditions: FIG. 5.
Experiment [6] relates to angiogenesis. Briefly: Angiogenesis in vivo (lectin staining, IHC).
Experiment [7] concerns triple-negative breast cancer cell line MDA-MB-231. Briefly: Proliferation assay (WST-1), MDA-MB-231. It counts as cell-based, human. As to conditions: in vitro; FIG. 7. On the procedure:
(§1) A colorimetric based proliferation assay using WST-1 (Roche, 11644807001) proliferation reagent was carried out using HREC cells, HUVEC cells, and the breast cancer cells MDA-MB-231, MCF-7, and SUM149. 2000 cells/well were plated in 96-well plates and allowed to adhere overnight. On the following day, the media was exchanged with fully supplemented media containing peptides or equivalent DMSO vehicle for the controls. Three days later, the media containing the peptides was replaced with serum-free EBM-2 media containing WST-1 reagent and the plates were incubated for four hours as per the manufacturer's recommendations. Changes in color, due to the formazan dye resulted from the cleavage of the tetrazolium salt WST-1 by the mitochondrial succinate-tetrazolium reductase, were read on a Victor V fluorescence plate reader (Perkin Elmer, Mass.) by measuring the absorbance at 450 nm. Dose response curves of percent live cells (in comparison to untreated cells, but incubated in complete media with 0.2% DMSO) were created. Assays were performed in at least two independent replicates and each replicate was performed using three experimental triplicates.

For experiment [8], the system named is human umbilical vein endothelial cells (HUVEC). Briefly: Proliferation assay (WST-1), HUVEC. The experiment is classed as cell-based. As to conditions: FIG. 1. On the procedure: as §1
Experiment [9] deals with estrogen receptor positive cell line MCF-7. Briefly: Proliferation assay (WST-1), MCF-7. The experiment is classed as cell-based. As to conditions: in vitro; FIG. 7. As for the experimental part: as §1
For experiment [10], the system named is human retinal endothelial cells (HREC). Briefly: Migration assay (RT-CIM), HREC. It counts as cell-based. Conditions: FIG. 2. As for the experimental part: The inhibitory potential of the peptides was measured using a real time migration assay system based on electrical impedance (RT-CIM, ACEA Biosciences, CA). CIM 16 well plates (Roche, 05665817001) are composed of a top and bottom chamber separated by a microporous (8 μm) polycarbonate membrane. The membrane was coated with fibronectin (20 μg/mL), and 45,000 cells/well in serum free media with or without peptides were added to the top compartment. Media with chemoattractant (i.e., fully supplemented EBM-2) was added to the bottom compartment of the chamber and the plate was incubated at 37° C. for 20 hours. The sensors integrated on the bottom side of the membrane monitor and continuously record changes in impedance as the cells move through the membrane. The RT-CIM technology allows for easy quantification of cell migration by monitoring the cell index derived from the measured impedances. Assays were performed in at least two independent replicates and each replicate was performed using two experimental duplicates. Breast cancer cells MDA-MB-231 are not suitable for the RT-CIM type experiments due to their thin elongated phenotype, thus the inhibition of migration was investigated using a wound healing type assay. This assay was performed using the Oris Pro Migration assay (Platypus Technologies, CMA 1.101). […]

In experiment [11] the test system is neovascularization. Briefly: Neovascularization in a rabbit model. It counts as in vivo. As to conditions: day 34 following intravitreal injection into rabbit eyes; FIG. 26.

For “LRRFSTAPFAFIDINDVINF (Artificial sequence based on human Collagen Type IV protein) [SP2043]”, in experiment [1] (FIG. 12B), the “metastasis of MDA-MB-231-luc tumors to lymph nodes, vimentin antibody staining for human cells” value is recorded as “inhibited”. In addition, the “metastasis of MDA-MB-231-luc tumors to multiple organs, photon flux from tumor cells” value in [1] (tumor-conditioned media pre-treated metastasis model, FIG. 12A) was “inhibited”. The “IGF1 signaling in MEC” value in experiment [2] is “inhibit”. The “lymphatic endothelial cell adhesion” value in experiment [3] is reported as “inhibit”. Moreover, in [4], the MEC tube formation result was “inhibit”. In addition, in [5], the LEC tube formation entry was “inhibit”. In [6] (FIG. 10), the angiogenesis in vivo entry is listed as “inhibit”. In experiment [6] (FIG. 11), the “angiogenesis as seen by lectin staining for IHC” value is recorded as “inhibited”. In experiment [7], the “proliferation of MDA-MB-231” value was “inhibit”. In addition, in [8], the “proliferation of HUVEC” value was “inhibit”. In addition, the “proliferation of MCF-7” value in experiment [9] is reported as “inhibit”. Further, the “migration of HREC” value in experiment [10] was “inhibit”. Also, in experiment [11], the “neovascularization in a rabbit model” value is recorded as “Inhibition”.

Values taken from patent US10774112B2, “Biomimetic peptide and biodegradable delivery platform for the treatment of angiogenesis- and lymphangiogenesis-dependent diseases” (THE JOHNS HOPKINS UNIVERSITY, priority 2013, dated 2020).
